The source made the active and inactive calls. How the calls were made is not given here.
Test system: CCRIS mutagenicity, Ames/micronucleus/aberration tests
Test: CCRIS mutagenicity studies
[1] = Test System: AMES SALMONELLA TYPHIMURIUM, Strain/Indicator: TA98, Metabolic Activation: NONE, Method: PREINCUBATION
[2] = Test System: AMES SALMONELLA TYPHIMURIUM, Strain/Indicator: TA98, Metabolic Activation: NONE, Method: STANDARD PLATE
[3] = Test System: AMES SALMONELLA TYPHIMURIUM, Strain/Indicator: TA98, Metabolic Activation: RAT, LIVER, S-9, AROCLOR 1254, Method: PREINCUBATION
[4] = Test System: AMES SALMONELLA TYPHIMURIUM, Strain/Indicator: TA98, Metabolic Activation: RAT, LIVER, S-9, AROCLOR 1254, Method: STANDARD PLATE
[5] = Test System: AMES SALMONELLA TYPHIMURIUM, Strain/Indicator: TA100, Metabolic Activation: NONE, Method: PREINCUBATION
[6] = Test System: AMES SALMONELLA TYPHIMURIUM, Strain/Indicator: TA100, Metabolic Activation: NONE, Method: STANDARD PLATE
[7] = Test System: AMES SALMONELLA TYPHIMURIUM, Strain/Indicator: TA100, Metabolic Activation: RAT, LIVER, S-9, AROCLOR 1254, Method: PREINCUBATION
[8] = Test System: AMES SALMONELLA TYPHIMURIUM, Strain/Indicator: TA100, Metabolic Activation: RAT, LIVER, S-9, AROCLOR 1254, Method: STANDARD PLATE
[9] = Test System: AMES SALMONELLA TYPHIMURIUM, Strain/Indicator: TA1535, Metabolic Activation: NONE, Method: STANDARD PLATE
[10] = Test System: AMES SALMONELLA TYPHIMURIUM, Strain/Indicator: TA1535, Metabolic Activation: RAT, LIVER, S-9, AROCLOR 1254, Method: PREINCUBATION
[11] = Test System: AMES SALMONELLA TYPHIMURIUM, Strain/Indicator: TA1535, Metabolic Activation: RAT, LIVER, S-9, AROCLOR 1254, Method: STANDARD PLATE
[12] = Test System: AMES SALMONELLA TYPHIMURIUM, Strain/Indicator: TA1537, Metabolic Activation: NONE, Method: STANDARD PLATE
[13] = Test System: AMES SALMONELLA TYPHIMURIUM, Strain/Indicator: TA1537, Metabolic Activation: RAT, LIVER, S-9, AROCLOR 1254, Method: STANDARD PLATE

SMILES | mutagenic call [1] | mutagenic call [2] | mutagenic call [3] | mutagenic call [4] | mutagenic call [5] | mutagenic call [6] | mutagenic call [7] | mutagenic call [8] | mutagenic call [9] | mutagenic call [10] | mutagenic call [11] | mutagenic call [12] | mutagenic call [13] | other results
CN(C)c1ccc([C@H]2C[C@]3(C)[C@@H](CC[C@]3(O)CCCO)[C@@H]3CCC4=CC(=O)CCC4=C32)cc1 | inactive; negative | inactive; negative | inactive; negative | inactive; negative | inactive; negative | inactive; negative | inactive; negative | inactive; negative | inactive; negative | inactive; negative | inactive; negative | inactive; negative | inactive; negative | mutagenic call (End Point: IN VITRO CHROMOSOMAL ABERRATIONS, Test System: HUMAN PERIPHERAL LYMPHOCYTES, Metabolic Activation: NONE): inactive; negative; mutagenic call (End Point: IN VITRO CHROMOSOMAL ABERRATIONS, Test System: HUMAN PERIPHERAL LYMPHOCYTES, Metabolic Activation: RAT, LIVER, S-9, AROCLOR 1254): inactive; negative; mutagenic call (End Point: IN VIVO MICRONUCLEUS, Test System: BONE MARROW POLYCHROMATIC ERYTHROCYTES, Species: MOUSE, Strain/Sex: NMRI/MALE, FEMALE, Route: INTRAGASTRIC): inactive; negative; mutagenic call (Test System: AMES SALMONELLA TYPHIMURIUM, Strain/Indicator: TA1535, Metabolic Activation: NONE, Method: PREINCUBATION): inactive; negative; mutagenic call (Test System: AMES SALMONELLA TYPHIMURIUM, Strain/Indicator: TA1537, Metabolic Activation: NONE, Method: PREINCUBATION): inactive; negative; mutagenic call (Test System: AMES SALMONELLA TYPHIMURIUM, Strain/Indicator: TA1537, Metabolic Activation: RAT, LIVER, S-9, AROCLOR 1254, Method: PREINCUBATION): inactive; negative; mutagenic call (Test System: AMES SALMONELLA TYPHIMURIUM, Strain/Indicator: TA1538, Metabolic Activation: NONE, Method: PREINCUBATION): inactive; negative; mutagenic call (Test System: AMES SALMONELLA TYPHIMURIUM, Strain/Indicator: TA1538, Metabolic Activation: NONE, Method: STANDARD PLATE): inactive; negative; mutagenic call (Test System: AMES SALMONELLA TYPHIMURIUM, Strain/Indicator: TA1538, Metabolic Activation: RAT, LIVER, S-9, AROCLOR 1254, Method: PREINCUBATION): inactive; negative; mutagenic call (Test System: AMES SALMONELLA TYPHIMURIUM, Strain/Indicator: TA1538, Metabolic Activation: RAT, LIVER, S-9, AROCLOR 1254, Method: STANDARD PLATE): inactive; negative; mutagenic call (Test System: CHINESE HAMSTER V-79, Strain/Indicator: V-79 (HGPRT)/6-THIOGUANINE, Metabolic Activation: NONE): inactive; negative; mutagenic call (Test System: CHINESE HAMSTER V-79, Strain/Indicator: V-79 (HGPRT)/6-THIOGUANINE, Metabolic Activation: RAT, LIVER, S-9, AROCLOR 1254): inactive; negative
O=[N+]([O-])c1cccc2nc3ccccc3nc12 | inactive; negative | – | – | – | – | – | – | – | – | – | – | – | – | mutagenic call (Test System: AMES SALMONELLA TYPHIMURIUM, Strain/Indicator: TA98(NR), Metabolic Activation: NONE, Method: PREINCUBATION): active; positive
N[C@@H](Cc1c[nH]c2ccc(O)cc12)C(=O)O | – | – | – | – | inactive; negative | – | – | – | – | – | – | – | – | –
ClC(Cl)(Cl)c1ccccc1 | inactive; negative | – | active; positive | – | active; positive | – | active; positive | – | – | active; positive | – | – | – | mutagenic call (Test System: AMES SALMONELLA TYPHIMURIUM, Strain/Indicator: TA98, Metabolic Activation: HAMSTER, LIVER, S-9, AROCLOR 1254 (30%), Method: PREINCUBATION): active; positive; mutagenic call (Test System: AMES SALMONELLA TYPHIMURIUM, Strain/Indicator: TA98, Metabolic Activation: RAT, LIVER, S-9, AROCLOR 1254 (30%), Method: PREINCUBATION): active; positive; mutagenic call (Test System: AMES SALMONELLA TYPHIMURIUM, Strain/Indicator: TA100, Metabolic Activation: HAMSTER, LIVER, S-9, AROCLOR 1254 (30%), Method: PREINCUBATION): active; positive; mutagenic call (Test System: AMES SALMONELLA TYPHIMURIUM, Strain/Indicator: TA100, Metabolic Activation: RAT, LIVER, S-9, AROCLOR 1254 (30%), Method: PREINCUBATION): active; positive
C=C1C[C@@]23CC[C@H]4[C@@](C)(CCC[C@@]4(C)C(=O)O[C@@H]4O[C@H](CO)[C@@H](O)[C@H](O)[C@H]4O)[C@@H]2CC[C@]1(O[C@@H]1O[C@H](CO)[C@@H](O)[C@H](O)[C@H]1O[C@@H]1O[C@@H](C)[C@H](O)[C@@H](O)[C@H]1O)C3 | – | – | – | – | – | – | – | – | – | – | – | – | – | mutagenic call (Test System: AMES SALMONELLA TYPHIMURIUM, Strain/Indicator: TM677, Metabolic Activation: RAT, LIVER, S-9, AROCLOR 1254, Method: PREINCUBATION): inactive; negative
CCCCON=O | – | inactive; negative | – | inactive; negative | – | active; positive | – | inactive; negative | active; positive | – | active; positive | inactive; negative | inactive; negative | mutagenic call (Test System: AMES SALMONELLA TYPHIMURIUM, Strain/Indicator: TA98, Metabolic Activation: HAMSTER, LIVER, S-9, AROCLOR 1254, Method: STANDARD PLATE): inactive; negative; mutagenic call (Test System: AMES SALMONELLA TYPHIMURIUM, Strain/Indicator: TA98, Metabolic Activation: S-9, Method: STANDARD PLATE): active; positive; mutagenic call (Test System: AMES SALMONELLA TYPHIMURIUM, Strain/Indicator: TA100, Metabolic Activation: HAMSTER, LIVER, S-9, AROCLOR 1254, Method: STANDARD PLATE): inactive; negative; mutagenic call (Test System: AMES SALMONELLA TYPHIMURIUM, Strain/Indicator: TA100, Metabolic Activation: S-9, Method: STANDARD PLATE): active; positive; mutagenic call (Test System: AMES SALMONELLA TYPHIMURIUM, Strain/Indicator: TA1535, Metabolic Activation: HAMSTER, LIVER, S-9, AROCLOR 1254, Method: STANDARD PLATE): active; positive; mutagenic call (Test System: AMES SALMONELLA TYPHIMURIUM, Strain/Indicator: TA1537, Metabolic Activation: HAMSTER, LIVER, S-9, AROCLOR 1254, Method: STANDARD PLATE): inactive; negative; mutagenic call (Test System: MOUSE LYMPHOMA, Strain/Indicator: L5178Y (TK+/TK-), Metabolic Activation: NONE, Method: SUSPENSION/PLATE): active; positive. reevaluation of results: positive; mutagenic call (Test System: MOUSE LYMPHOMA, Strain/Indicator: L5178Y (TK+/TK-), Metabolic Activation: RAT, LIVER, S-9, AROCLOR 1254, Method: SUSPENSION/PLATE): active; positive. reevaluation of results: positive

From PubChem BioAssay AID1259407 (Chemical Carcinogenesis Research Information System (CCRIS), 2018)
